# Measurements taken from ChEMBL document CHEMBL1143587, “Discovery of S-phase arresting agents derived from noscapine” (J Med Chem, 2005).
# Activity calls are given as the source filed them. The calls are words filed in the database; no cut-off is given here.
# Assays:
# [1] = tested on: HEK293; experiment: Effect to arrest S-phase on HEK 293 cells at 50 uM was determined; Not significant; type: functional, cell-based; conditions: Homo sapiens
# [2] = tested on: HEK293; experiment: Effect to arrest G2/M-phase on HEK 293 cells at 25 uM was determined; type: functional, Homo sapiens
# [3] = tested on: HEK293; experiment: Effect to arrest G2/M-phase on HEK 293 cells at 50 uM was determined; type: functional, Homo sapiens
# [4] = tested on: HEK293; experiment: Effect to arrest S-phase on HEK 293 cells at 10 uM was determined; type: functional, Homo sapiens
# [5] = tested on: HEK293; experiment: Effect to arrest S-phase on HEK 293 cells at 25 uM was determined; type: functional, Homo sapiens
# [6] = tested on: HEK293; experiment: Effect to arrest S-phase on HEK 293 cells at 50 uM was determined; type: functional, Homo sapiens
# [7] = tested on: HEK293; experiment: Effect to arrest GI-phase on HEK 293 cells at 10 uM was determined; type: functional, Homo sapiens
# [8] = tested on: HEK293; experiment: Effect to arrest GI-phase on HEK 293 cells at 50 uM was determined; type: functional, Homo sapiens
# [9] = tested on: HEK293; experiment: Effect to arrest G2/M-phase on HEK 293 cells at 10 uM was determined; type: functional, Homo sapiens
# [10] = tested on: HEK293; experiment: Compound was tested for inhibition of HEK293 proliferation; type: functional, cell-based; conditions: Homo sapiens
# [11] = tested on: HEK293; experiment: Effect to arrest GI-phase on HEK 293 cells at 25 uM was determined; type: functional, Homo sapiens
# [12] = tested on: HEK293; experiment: Effect to arrest S-phase on HEK 293 cells at 1 uM was determined; type: functional, Homo sapiens
# [13] = tested on: HEK293; experiment: Effect to arrest GI-phase on HEK 293 cells at 1 uM was determined; type: functional, Homo sapiens
# [14] = tested on: HEK293; experiment: Effect to arrest G2/M-phase on HEK 293 cells at 1 uM was determined; type: functional, Homo sapiens
Structure (SMILES),Activity [1],Effect [4] [%],Effect [7] [%],Effect [9] [%],other results
COc1cc(-c2c(OC)ccc3c2C(=O)O[C@@H]3[C@H]2c3c(cc4c(c3OC)OCO4)CCN2C)cc(OC)c1OC,inactive,–,–,–,–
COc1ccc2c(c1-c1cc(F)cc(F)c1)C(=O)O[C@@H]2[C@H]1c2c(cc3c(c2OC)OCO3)CCN1C,inactive,–,–,–,–
COc1ccc2c(c1-c1ccsc1)C(=O)O[C@@H]2[C@H]1c2c(cc3c(c2OC)OCO3)CCN1C,inactive,–,–,–,–
COc1ccc2c(c1OCc1ccccc1)C(=O)OC2[C@H]1c2c(cc3c(c2OC)OCO3)CCN1C (stereo not given in full),–,57,28,17,Effect [2]: 15%; Effect [3]: 10%; Effect [5]: 71%; Effect [6]: 67%; Effect [8]: 23%; EC50 [10]: 15 µM; Effect [11]: 12%
COc1ccc2c(c1-c1ccc(C(C)(C)C)cc1)C(=O)O[C@@H]2[C@H]1c2c(cc3c(c2OC)OCO3)CCN1C,inactive,–,–,–,–
COc1ccc2c(c1-c1ccc(N(C)C)cc1)C(=O)O[C@@H]2[C@H]1c2c(cc3c(c2OC)OCO3)CCN1C,inactive,–,–,–,–
COc1ccc2c(c1OCc1ccsc1)C(=O)O[C@@H]2[C@H]1c2c(cc3c(c2OC)OCO3)CCN1C,–,–,–,–,Effect [2]: 10%; Effect [5]: 62%; Effect [11]: 28%
COc1ccc2c(c1SCc1ccccc1)C(=O)O[C@@H]2[C@H]1c2c(cc3c(c2OC)OCO3)CCN1C,–,65,24,11,–
COc1cc2c(c(OC)c1OC)-c1ccc(OC)c(=O)cc1[C@@H](NC(C)=O)CC2 [COLCHICINE],–,14,3,83,–
COc1ccc2c(c1OCc1csc(C)n1)C(=O)O[C@@H]2[C@H]1c2c(cc3c(c2OC)OCO3)CCN1C,–,62,28,10,–
COc1cc(COc2c(OC)ccc3c2C(=O)O[C@@H]3[C@H]2c3c(cc4c(c3OC)OCO4)CCN2C)cc(OC)c1OC,–,65,19,16,Effect [3]: 6%; Effect [12]: 65%; Effect [13]: 24%; Effect [6]: 84%; Effect [8]: 13%; Effect [14]: 11%; EC50 [10]: 1.9 µM
COc1ccc2c(c1OC)C(=O)O[C@@H]2[C@H]1c2c(cc3c(c2OC)OCO3)CCN1C [NOSCAPINE],–,–,–,–,Effect [3]: 76%; Effect [6]: 18%; Effect [8]: 6%
